Tests used:
[1] = test system: control sera (pooled serum of ten healthy LUMC hospital workers; commercial negative donor pooled serum from the Dutch bloodbank); assay type: binding, human; set-up: Binding of Control serum LUMC to linear peptides / Binding of Control serum Blood-bank to linear peptides / Binding of Control serum LUMC to looped peptides / Binding of Control Serum Blood-Bank to Looped peptides / Binding of Control serum LUMC to linear peptides of the protein M of SARS-CoV Urbani / Binding of Control serum Blood-bank to linear peptides of the protein M of SARS-CoV Urbani / Binding of Control serum LUMC to looped peptides of the protein M of SARS-CoV Urbani / Binding of Control Serum Blood-Bank to Looped peptides of the protein M of SARS-CoV Urbani: unit not given here
[2] = test system: recombinant human anti-SARS-CoV antibody 03-018; assay type: binding; set-up: Binding of antibody 03-018 to linear peptides of the N protein of SARS-CoV Urbani / Binding of antibody 03-018 to looped/cyclic peptides of the N protein of SARS-CoV Urbani: unit not given here
[3] = test system: antibodies in sera from SARS patients (sera 1a, 1b, 2, 6, 37, 62, London, SARS-yellow, SARS-green); assay type: binding, human; set-up: Binding of serum 6 to linear peptides of protein X1 of SARS-CoV Urbani / Binding of serum 37 to linear peptides of protein X1 of SARS-CoV Urbani / Binding of serum 6 to looped/cyclic peptide (PEPSCAN-ELISA) / Binding of serum 37 to looped/cyclic peptide (PEPSCAN-ELISA) / Binding of serum 37 to looped/cyclic peptides of protein X1 of SARS-CoV Urbani / Binding of serum 6 to linear peptides of protein X2 / Binding of serum 37 to linear peptides of protein X2 / Binding of serum 37 to looped/cyclic peptides of protein X2 of SARS-CoV Urbani / Binding of serum 6 to linear peptides of protein M of SARS-CoV Urbani / Binding of serum 37 to linear peptides of protein M of SARS-CoV Urbani / Binding of serum 6 to looped/cyclic peptides of protein M of SARS-CoV Urbani / Binding of serum 37 to looped/cyclic peptides of protein M of SARS-CoV Urbani / Binding of serum 6 to linear peptides of protein X3 of SARS-CoV Urbani / Binding of serum 37 to linear peptides of protein X3 of SARS-CoV Urbani / Binding of serum 37 to looped/cyclic peptides of protein X3 of SARS-CoV Urbani / Binding of serum 6 to linear peptides of protein X4 of SARS-CoV Urbani / Binding of serum 37 to linear peptides of protein X4 of SARS-CoV Urbani / Binding of serum 37 to looped/cyclic peptides of protein X4 of SARS-CoV Urbani / Binding of serum 6 to linear peptides of protein X5 of SARS-CoV Urbani / Binding of serum 37 to linear peptides of protein X5 of SARS-CoV Urbani / Binding of serum 37 to looped/cyclic peptides of protein X5 of SARS-CoV Urbani / Binding of serum 6 to linear peptides of protein N of SARS-CoV Urbani / Binding of serum 37 to linear peptides of protein N of SARS-CoV Urbani / Binding of serum 6 to linear peptide (PEPSCAN-ELISA) / Binding of serum 1a to looped/cyclic peptides of protein N of SARS-CoV Urbani / Binding of serum 1b to looped/cyclic peptides of protein N of SARS-CoV Urbani / Binding of serum 2 to looped/cyclic peptides of protein N of SARS-CoV Urbani / Binding of serum 6 to looped/cyclic peptides of protein N of SARS-CoV Urbani / Binding of serum 37 to looped/cyclic peptides of protein N of SARS-CoV Urbani / Binding of serum 62 to looped/cyclic peptides of protein N of SARS-CoV Urbani / Binding of serum London to looped/cyclic peptides of protein N of SARS-CoV Urbani / Binding of serum SARS-green to looped/cyclic peptides of protein N of SARS-CoV Urbani: unit not given here
[4] = test system: rabbit serum obtained by immunizing a rabbit with the SARS-CoV strain Frankfurt 1; assay type: binding; set-up: Binding of a rabbit serum to linear peptides / Binding of a rabbit serum to looped peptides / Rabbit serum linear peptides / Rabbit serum looped peptides / Binding of a rabbit serum to linear peptides of protein N of SARS-CoV Urbani (Rabbit serum linear peptides) / Binding of a rabbit serum to looped/cyclic peptides of protein N of SARS-CoV Urbani (Rabbit serum looped peptides): unit not given here

| Sequence | Binding of Control Serum Blood-Bank to Looped peptides [1] | Binding of Control serum Blood-bank to linear peptides [1] | Binding of Control serum LUMC to linear peptides [1] | Binding of Control serum LUMC to looped peptides [1] | Binding of antibody 03-018 to linear peptides of the N protein of SARS-CoV Urbani [2] | Binding of antibody 03-018 to looped/cyclic peptides of the N protein of SARS-CoV Urbani [2] | Binding of serum 1a to linear peptide (PEPSCAN-ELISA) [3] | Binding of serum 1a to looped/cyclic peptides of protein N of SARS-CoV Urbani [3] | Binding of serum 1b to linear peptide (PEPSCAN-ELISA) [3] | Binding of serum 1b to looped/cyclic peptides of protein N of SARS-CoV Urbani [3] | Binding of serum 2 to linear peptide (PEPSCAN-ELISA) [3] | Binding of serum 2 to looped/cyclic peptides of protein N of SARS-CoV Urbani [3] | Binding of serum 6 to looped/cyclic peptides of protein N of SARS-CoV Urbani [3] | Binding of serum 37 to looped/cyclic peptides of protein N of SARS-CoV Urbani [3] | Binding of serum 62 to looped/cyclic peptides of protein N of SARS-CoV Urbani [3] | Binding of serum London to looped/cyclic peptides of protein N of SARS-CoV Urbani [3] | Binding of serum SARS-green to looped/cyclic peptides of protein N of SARS-CoV Urbani [3] | Binding of serum SARS-yellow to looped/cyclic peptides of protein N of SARS-CoV Urbani [3] | Binding of a rabbit serum to linear peptides of protein N of SARS-CoV Urbani (Rabbit serum linear peptides) [4] | Binding of a rabbit serum to looped/cyclic peptides of protein N of SARS-CoV Urbani (Rabbit serum looped peptides) [4] | further results |
| --- | --- | --- | --- | --- | --- | --- | --- | --- | --- | --- | --- | --- | --- | --- | --- | --- | --- | --- | --- | --- | --- |
| TQAFGRRGPEQTQGN | 0.7 | 0.8 | 0.7 | 0.6 | 0.1 | 0.2 | 0.2 | 0.3 | 0.1 | 0.2 | 0.2 | 0.4 | 0.3 | 0.5 | 0.5 | 0.4 | 0.3 | 0.2 | – | – | Binding of serum 6 to linear peptide (PEPSCAN-ELISA) [3]: 0.2; Binding of serum 37 to linear peptide (PEPSCAN-ELISA) [3]: 0.6; Binding of serum 62 to linear peptide (PEPSCAN-ELISA) [3]: 0.5; Binding of serum London to linear peptide (PEPSCAN-ELISA) [3]: 0.5; Binding of serum SARS-green to linear peptide (PEPSCAN-ELISA) [3]: 0.3; Binding of serum SARS-yellow to linear peptide (PEPSCAN-ELISA) [3]: 0.5; Recognition of the peptide by the rabbit serum [4]: recognized |
| TQGNFGDQDLIRQGT | 0.8 | 0.8 | 0.9 | 0.8 | 0.1 | 0.2 | 0.3 | 0.4 | 0.2 | 0.3 | 0.2 | 0.4 | 0.2 | 0.7 | 0.7 | 0.5 | 0.5 | 0.6 | 0.2 | 0.6 | Binding of serum 6 to linear peptide (PEPSCAN-ELISA) [3]: 0.2; Binding of serum 37 to linear peptide (PEPSCAN-ELISA) [3]: 0.9; Binding of serum 62 to linear peptide (PEPSCAN-ELISA) [3]: 0.8; Binding of serum London to linear peptide (PEPSCAN-ELISA) [3]: 0.6; Binding of serum SARS-green to linear peptide (PEPSCAN-ELISA) [3]: 0.6; Binding of serum SARS-yellow to linear peptide (PEPSCAN-ELISA) [3]: 0.6 |
| TQHGKEELRFPRGQG | 0.6 | 0.9 | 0.8 | 0.6 | 0.1 | 0.2 | – | 0.3 | – | 0.2 | – | 0.3 | 0.2 | 0.5 | 0.3 | 0.4 | 0.2 | 0.4 | 0.1 | 0.3 | Binding of serum 1a to linear peptides of protein N of SARS-CoV Urbani [3]: 0.3; Binding of serum 1b to linear peptides of protein N of SARS-CoV Urbani [3]: 0.2; Binding of serum 2 to linear peptides of protein N of SARS-CoV Urbani [3]: 0.3; Binding of serum 6 to linear peptides of protein N of SARS-CoV Urbani [3]: 0.2; Binding of serum 37 to linear peptides of protein N of SARS-CoV Urbani [3]: 0.7; Binding of serum 62 to linear peptides of protein N of SARS-CoV Urbani [3]: 0.8; Binding of serum London to linear peptides of protein N of SARS-CoV Urbani [3]: 0.5; Binding of serum SARS-green to linear peptides of protein N of SARS-CoV Urbani [3]: 0.4; Binding of serum SARS-yellow to linear peptides of protein N of SARS-CoV Urbani [3]: 0.6 |
| TRNPNNNAATVLQLP | 0.8 | 0.7 | 0.8 | 0.7 | 0.1 | 0.2 | – | 0.4 | – | 0.3 | – | 0.7 | 0.3 | 0.6 | 0.5 | 0.5 | 0.8 | 0.5 | 0.1 | 0.5 | Binding of serum 1a to linear peptides of protein N of SARS-CoV Urbani [3]: 0.3; Binding of serum 1b to linear peptides of protein N of SARS-CoV Urbani [3]: 0.1; Binding of serum 2 to linear peptides of protein N of SARS-CoV Urbani [3]: 0.3; Binding of serum 6 to linear peptides of protein N of SARS-CoV Urbani [3]: 0.2; Binding of serum 37 to linear peptides of protein N of SARS-CoV Urbani [3]: 0.6; Binding of serum 62 to linear peptides of protein N of SARS-CoV Urbani [3]: 0.7; Binding of serum London to linear peptides of protein N of SARS-CoV Urbani [3]: 0.5; Binding of serum SARS-green to linear peptides of protein N of SARS-CoV Urbani [3]: 0.3; Binding of serum SARS-yellow to linear peptides of protein N of SARS-CoV Urbani [3]: 0.7 |
